The numbers were not newly measured in patent US20140234375A1, “Compositions and Methods for Eliciting an Immune Response to Escape Mutants of Targeted Therapies” (priority 2005, published 2014), which cites them from elsewhere.

One series has as its target HCV NS3 serine protease (Hepatitis C virus genotype 1b, UniProt Q9WMX2). Conditions: in vitro, major resistance mutation.
In another series the test system is HIV-1 variants. The following applies: by 8 weeks of therapy.
In the next series the test system is HIV gp41. The following applies: valine to alanine at amino acid 38 (V38A).

As to `COc1ccc2c(O[C@@H]3C[C@H]4C(=O)N[C@]5(C(=O)O)C[C@H]5/C=C\CCCCC[C@H](NC(=O)OC5CCCC5)C(=O)N4C3)cc(-c3csc(NC(C)C)n3)nc2c1` [BILN 2061], at HCV NS3 serine protease, the “frequency of Ala substitution (D168A) at amino acid 168” value was 24% and the “frequency of Val substitution (D168V) at amino acid 168” value is 64%.

Regarding `Cc1ccnc2c1NC(=O)c1cccnc1N2C1CC1` [Nevirapine, nevirapine], in the series on HIV-1 variants, the “decrease in susceptibility of patient isolates” value is listed as “greater than 100 fold”.

Consider `CCC[C@H](NC(=O)[C@@H]1[C@H]2CCC[C@H]2CN1C(=O)[C@@H](NC(=O)[C@@H](NC(=O)c1cnccn1)C1CCCCC1)C(C)(C)C)C(=O)C(=O)NC1CC1` [VX-950], for which the “frequency of Ser substitution (A156S) at amino acid 156” value at HCV NS3 serine protease (share of samples) is listed as 79%.

For the compound enfuvirtide, the resistance to enfuvirtide with HIV gp41 is reported as 45 fold.
